Measurements published in BigSolDB 2.1.

CC1(C)CCC2=C(O1)c1ccccc1C(=O)C2=O
solubility (mole fraction)
Settings | 298.15 K | 303.15 K | 308.15 K | 313.15 K | 318.15 K
in acetone | 0.0205 | 0.0216 | 0.0245 | 0.0296 | 0.0342
in acetonitrile | 0.018 | 0.0209 | 0.0227 | 0.0269 | 0.0325
in ethanol | 0.00499 | 0.00595 | 0.00664 | 0.00909 | 0.0134
in ethyl acetate | 0.00853 | 0.00936 | 0.0104 | 0.0121 | 0.0165
in isopropanol | 0.00376 | 0.00432 | 0.00528 | 0.00754 | 0.0111
in methanol | 0.0054 | 0.00654 | 0.0076 | 0.0101 | 0.0153
in n-butanol | 0.00743 | 0.00895 | 0.0108 | 0.0142 | 0.0203
in n-propanol | 0.00669 | 0.00793 | 0.00969 | 0.0146 | 0.0203
in propylene glycol | 0.00306 | 0.00308 | 0.0037 | 0.00531 | 0.00724
in sec-butanol | 0.00565 | 0.00671 | 0.0079 | 0.0104 | 0.0162
in water | 2.85e-06 | 3.72e-06 | 4.46e-06 | 5.26e-06 | 6.12e-06
